From ChEMBL document CHEMBL1152753, “BRACO19 analog dimers with improved inhibition of telomerase and hPot 1” (Bioorg Med Chem, 2009)
Activity calls are given as the source filed them. No cut-off for these calls is given here.

Legend:
[1] = (§1) Inhibition of human G-quadruplex [TTAGGG]4 DNA templet extension assessed as increase in ligand-induced polymerase stop products by Taq DNA polymerase stop assay
Homo sapiens [2] = organism: Homo sapiens; experiment: Induction of G-quadruplex structure formation in human telomeric d[5'G3(T2AG3]-3' DNA assessed as major positive band at 290 nm at 1 mole ligand concentration by CD spectroscopy
Homo sapiens [3] = organism: Homo sapiens; experiment: Stabilization of human telomeric d[5'G3(T2AG3]-3' assessed as change in melting temperature at 25 uM
[4] = molecular target: Telomerase reverse transcriptase (Homo sapiens, UniProt O14746); experiment: Inhibition of human telomerase assessed as unincorporated [alpha32P]dGTP
Chain of Telomerase reverse transcriptase (O14746 whole entry): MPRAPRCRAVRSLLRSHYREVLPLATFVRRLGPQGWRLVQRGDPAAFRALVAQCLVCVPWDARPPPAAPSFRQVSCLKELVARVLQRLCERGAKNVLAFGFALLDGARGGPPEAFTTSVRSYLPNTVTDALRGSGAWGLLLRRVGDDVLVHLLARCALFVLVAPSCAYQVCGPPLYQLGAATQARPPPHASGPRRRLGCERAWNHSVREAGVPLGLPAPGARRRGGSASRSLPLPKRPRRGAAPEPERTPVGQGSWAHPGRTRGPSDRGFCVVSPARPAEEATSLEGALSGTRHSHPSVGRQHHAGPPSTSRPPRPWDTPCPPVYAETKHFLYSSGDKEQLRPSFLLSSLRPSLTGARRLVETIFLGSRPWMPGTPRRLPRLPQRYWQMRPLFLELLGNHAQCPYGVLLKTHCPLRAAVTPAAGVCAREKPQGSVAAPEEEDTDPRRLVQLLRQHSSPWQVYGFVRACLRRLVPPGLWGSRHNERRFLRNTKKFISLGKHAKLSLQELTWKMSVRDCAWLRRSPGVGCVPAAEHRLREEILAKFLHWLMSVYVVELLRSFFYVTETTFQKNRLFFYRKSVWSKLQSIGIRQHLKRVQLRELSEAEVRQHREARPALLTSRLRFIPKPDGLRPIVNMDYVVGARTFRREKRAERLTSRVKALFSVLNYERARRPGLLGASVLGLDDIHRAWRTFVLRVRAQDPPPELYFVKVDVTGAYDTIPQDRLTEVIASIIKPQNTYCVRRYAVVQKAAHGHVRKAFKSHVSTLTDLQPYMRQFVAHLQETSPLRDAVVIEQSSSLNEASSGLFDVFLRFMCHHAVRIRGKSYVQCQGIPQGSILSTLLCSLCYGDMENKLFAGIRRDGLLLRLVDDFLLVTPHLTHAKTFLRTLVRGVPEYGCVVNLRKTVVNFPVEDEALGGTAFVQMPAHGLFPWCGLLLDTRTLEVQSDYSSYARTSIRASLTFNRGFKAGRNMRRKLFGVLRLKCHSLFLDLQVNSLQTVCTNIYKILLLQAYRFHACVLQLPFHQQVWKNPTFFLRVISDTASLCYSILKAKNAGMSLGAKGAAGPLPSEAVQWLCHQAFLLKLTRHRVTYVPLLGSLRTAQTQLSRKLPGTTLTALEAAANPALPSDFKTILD

[5] = molecular target: T1, Protection of telomeres protein 1 (Homo sapiens, UniProt Q9NUX5); experiment: Inhibition of human 35S-labeled Pot1 binding to human telomeric DNA
T1 sequence (Q9NUX5 whole entry): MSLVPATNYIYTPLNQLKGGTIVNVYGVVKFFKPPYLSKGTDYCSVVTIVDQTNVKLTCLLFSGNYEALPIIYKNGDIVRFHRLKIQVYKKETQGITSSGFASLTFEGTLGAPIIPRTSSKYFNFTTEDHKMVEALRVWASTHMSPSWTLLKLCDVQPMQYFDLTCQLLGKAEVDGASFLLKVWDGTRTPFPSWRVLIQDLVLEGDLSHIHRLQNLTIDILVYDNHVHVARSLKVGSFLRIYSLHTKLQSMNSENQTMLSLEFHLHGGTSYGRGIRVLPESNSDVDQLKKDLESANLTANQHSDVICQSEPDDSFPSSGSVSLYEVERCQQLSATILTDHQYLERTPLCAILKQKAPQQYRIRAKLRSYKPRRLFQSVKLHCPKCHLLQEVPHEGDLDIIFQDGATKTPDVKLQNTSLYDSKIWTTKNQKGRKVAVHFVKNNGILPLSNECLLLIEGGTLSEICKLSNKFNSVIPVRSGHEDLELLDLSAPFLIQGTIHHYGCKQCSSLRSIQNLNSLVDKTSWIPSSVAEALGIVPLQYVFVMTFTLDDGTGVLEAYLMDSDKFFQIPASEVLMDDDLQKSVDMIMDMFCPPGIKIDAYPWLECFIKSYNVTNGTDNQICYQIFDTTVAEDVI

[6] = Inhibition of non G-quadruplex [TTAGAG]4 DNA templet extension assessed as ligand-induced polymerase stop products by Taq DNA polymerase stop assay
Homo sapiens [7] = organism: Homo sapiens; experiment: as §1
Homo sapiens [8] = organism: Homo sapiens; experiment: Induction of G-quadruplex structure formation in human telomeric d[5'G3(T2AG3]-3' DNA assessed as major positive band at 295 nm at 2 mole ligand concentration by CD spectroscopy
Homo sapiens [9] = organism: Homo sapiens; experiment: Binding affinity to human telomeric d[5'G3(T2AG3]-3' DNA quadruplex assessed as major positive band at 292 nm at 2:1 drug to DNA ratio
Homo sapiens [10] = organism: Homo sapiens; experiment: Binding affinity to human telomeric d[5'G3(T2AG3]-3' DNA quadruplex assessed as major positive band at 292 nm at 1:1 drug to DNA ratio
Homo sapiens [11] = organism: Homo sapiens; experiment: Binding affinity to human telomeric d[5'G3(T2AG3]-3' DNA quadruplex assessed as major positive band at 292 nm at >1:1 drug to DNA ratio

EC50 [1] [µM]	Activity (Homo sapiens [2])	ΔTm (Homo sapiens [3]) [°C]	IC50 [4] [µM]	IC50 [5] [µM]	EC50 [6] [µM]	Activity (Homo sapiens [7])	Activity (Homo sapiens [8])	Activity (Homo sapiens [9])	Activity [6]	Activity (Homo sapiens [10])	Activity (Homo sapiens [11])	SMILES
0.071	Active	28	7.5	11	0.36	–	–	–	–	–	–	O=C(CCN1CCCC1)Nc1ccc2c(NCNCCNCNc3c4ccc(NC(=O)CCN5CCCC5)cc4nc4cc(NC(=O)CCN5CCCC5)ccc34)c3ccc(NC(=O)CCN4CCCC4)cc3nc2c1
1.8	–	18	5.4	63	19.1	Dose-dependent effect	Active	Active	Dose-dependent effect	–	–	CN(C)c1ccc(Nc2c3ccc(NC(=O)CCN4CCCC4)cc3nc3cc(NC(=O)CCN4CCCC4)ccc23)cc1
0.2	Active	20	9	45	3.9	Dose-dependent effect	–	–	Dose-dependent effect	Active	inactive	O=C(CCN1CCCC1)Nc1ccc2c(NCOCCOCNc3c4ccc(NC(=O)CCN5CCCC5)cc4nc4cc(NC(=O)CCN5CCCC5)ccc34)c3ccc(NC(=O)CCN4CCCC4)cc3nc2c1
0.85	Active	23	4	17	4.5	–	–	–	–	–	–	O=C(CCN1CCCC1)Nc1ccc2c(NCCCCCCNc3c4ccc(NC(=O)CCN5CCCC5)cc4nc4cc(NC(=O)CCN5CCCC5)ccc34)c3ccc(NC(=O)CCN4CCCC4)cc3nc2c1
